In US7144902B1, “Prodrugs of thrombin inhibitors” (Abbott GmbH & Co. KG, priority 1999, dated 2006):

Assays:
[1] = system: human colon adenocarcinoma cell lines HT-29, Caco-2 and T84; IEC-18 cell line; assay: Transport experiments through intestinal cell layers on Transwell polycarbonate membranes (apical to basolateral); type: in vitro ADME; design: key: +++: very good transport; ++: good transport; +: moderate transport; conditions: transport rate from apical side through the cell layer to basolateral side, e.g. apical (pH 6.0) to basolateral (pH 8.0), e.g. 24 h; HPLC; divided into categories
Source text: Several in vitro models are available for studying intestinal absorption. Thus, the human colon adenocarcinoma cell lines HT-29, Caco-2 and T84 are routinely employed to investigate various intestinal transport processes (Madara et al., Am. J. Physiol. 1988, 254: G416–G423; K. L. Audus et al., Pharm. Res. 1990, 7, 435–451). The IEC-18 cell line has also shown itself to be a suitable model for investigating the permeability of hydrophilic substances through the intestinal membrane (Ma et al., J. Lab. Clin. Med. 1992 120, 329–41; Duizer et al., J. Contr. Rel. 1997 49, 39–49).
For the transport experiments (for materials and methods, see R. T. Borchardt, P. L. Smith, G. Wilson, Models for Assessing Drug Absorption and Metabolism, 1st edition, Plenum Press New York and London, 1996, chapter 2), the cells are cultivated on Transwell polycarbonate membranes for 17–24 days. The test chamber is arranged so that the membrane divides the apical from the basolateral compartment. Transport of the test substances from the apical side through the cell layer onto the basolateral side can be measured as a function of the pH gradient, for example apical (pH 6.0)→basolateral (pH 8.0).
After incubation of the cells with the test substance, samples are taken from the apical and basolateral sides after a defined time interval (e.g. 24 h). The content of test substance employed and any metabolites in each of the two compartments is determined by HPLC (comparison of retention times) and HPLC-MS (elucidation of metabolites) analyses. The transport rate is calculated.
It is possible on the basis of the results of these tests to divide test substances into the following categories: […]

[2] = Stability of aqueous solutions of the product; type: physicochemical; conditions: neutral versus acidic aqueous solutions; acylated amidine function is hydrolyzed in acid
Procedure: • The crude product obtained in g), t-BuO2C—CH2-(Boc)-(D)-Chg-Pyr-NH—CH -5-(2=NH(NH—COOCH3))-thioph (1.7 g, max. 2.3 mmol), was dissolved in a mixture of 45 ml of methylene chloride, 20 ml of dioxane and 45 ml of 4N hydrochloric acid in dioxane and stirred overnight with exclusion of moisture. The reaction solution was concentrated in vacuo, and the residue was codistilled with ether several times and subsequently extracted by stirring with ether. After drying in vacuo, 1.3 g of the title compound were obtained as a white solid product. […] FAB-MS (M+H^+): 506

Transport [1] | SMILES | stability of aqueous solutions [2]
+ | CC(C)COC(=O)NC(=N)c1ccc(CNC(=O)C2C=CCN2C(=O)[C@H](NCC(=O)O)C2CCCCC2)s1.Cl (some centres unmarked) [Example 2, N-(Hydroxycarbonylmethyl)-(D)-cyclohexylglycyl-3,4-dehydroproline 2-(N-isobutyloxycarbonyl)amidino-5-thienylmethylamide hydrochloride] | 
+ | Cc1ccc(CON=C(N)c2ccc(CNC(=O)C3C=CCN3C(=O)[C@H](NCC(=O)O)C3CCCCC3)s2)cc1.Cl (some centres unmarked) [Example 10, N-(Hydroxycarbonylmethyl)-(D)-cyclohexylglycyl-3.4-dehydroproline 2-(N-(p-methylbenzyloxy)amidino)-5-thienylmethylamide hydrochloride] | 
++ | CCCCCCCCCCCCCCCCOC(=O)CN[C@H](CC1CCCCC1)C(=O)N1CC=CC1C(=O)NCc1nc(C(=N)N)cs1.Cl.Cl (some centres unmarked) [Example 21, N-(Hexadecyloxycarbonylmethyl)-(D)-cyclohexylalanyl-3,4-dehydroproline 4-amidino-2-thiazolylmethylamide dihydrochloride] | 
+++ | CCOC(=O)CN[C@@H](C(=O)N1CC=CC1C(=O)NCc1ccc(C(N)=NOCc2ccc(C)cc2)s1)C1CCCCC1.Cl (some centres unmarked) [Example 11, N-(Ethoxycarbonylmethyl)-(D)-cyclohexylglycyl-3.4-dehydroproline 2-(N-(p-methylbenzyloxy)amidino)-5-thienylmethylamide hydrochloride] | 
++ | CCCCCCOC(=O)CN[C@H](CC1CCCCC1)C(=O)N1CC=CC1C(=O)NCc1nc(C(N)=NO)cs1.Cl (some centres unmarked) [Example 29, N-(Hexyloxycarbonylmethyl)-(D)-cyclohexylalanyl-3,4-dehydroproline 4-hydroxyamidino-2-thiazolylmethylamide hydrochloride] | 
+++ | CC(C)CCOC(=O)CN[C@H](CC1CCCCC1)C(=O)N1CC=CC1C(=O)NCc1nc(C(N)=NO)cs1.Cl (some centres unmarked) [Example 33, N-(3,3-Dimethylpropyloxycarbonylmethyl)-(D)-cyclohexylalanyl-3,4-dehydroproline 4-hydroxyamidino-2-thiazolylmethylamide hydrochloride] | 
++ | CCCCCCCCCCCCCCCCOC(=O)CN[C@H](CC1CCCCC1)C(=O)N1CC=CC1C(=O)NCc1nc(C(N)=NO)cs1.Cl (some centres unmarked) [Example 25, N-(Hexadecyloxycarbonylmethyl)-(D)-cyclohexylalanyl-3,4-dehydroproline 4-hydroxyamidino-2-thiazolylmethylamide hydrochloride] | 
 | COC(=O)NC(=N)c1ccc(CNC(=O)C2C=CCN2C(=O)C(NCC(=O)O)C2CCCCC2)s1.Cl (centres unmarked) [Example 1, N-(Hydroxycarbonylmethyl)-(D)-cyclohexylglycyl-3,4-dehydroproline 2-(N-methoxycarbonyl)amidino-5-thienylmethylamide hydrochloride] | distinctly more stable than acidic solutions
